Measurements reported in patent US20220233662A1, “NOVEL PEPTIDE” (University College Cardiff Consultants Ltd., priority 2020, published 2022).

How the values were obtained:
Type in all cases: cell-based, human
[1] = test system: CD8+ T-cells from HLA A2+ healthy donors; test: Priming of CD8+ T-cells from HLA A2+ healthy donors with WT and APL peptides, tetramer staining; details: HLA A2+ healthy donors (n=3), compared to priming with WT peptides
Experimental: The peptides are sequence […] to the wild-type peptide and termed altered peptide ligands. […] (FIG. 9B) To test the APLs for super-agonist properties each of the WT and APL peptides were used to prime CD8+ T-cells from HLA A2+ healthy donors. The magnitude of the response to each of the peptides was assessed by staining the T-cells with tetramers for HLA A2-[…]
To generate T-cell peptide lines, CD8 T-cells were purified from the PBMCs of HLA A2+ donors using CD8 microbeads according to the manufacturer's instructions (Miltenyi Biotech, Bergisch Gladbach, Germany). Purified CD8 cells (3×10^6) were co-incubated with autologous CD8neg cells (6-8×10^6) in 24 well plates in 2 mL of T-cell media, but with no IL-15. 25 μM of each peptide was used. The cultures had 50% of the media changed thrice weekly. Tetramer staining was performed as above, using 500,000 cells per tube. […] 50,000 T-cells and 15,000 cancer cells were used per well. Incubation was performed for 48 h, and the assay developed according to the manufacturer's instructions (Mabtech, Nacka Strand, Sweden).
(§1) CPL assay of CR24 was performed as described above. Candidate peptide agonists were designed using the CR24 CPL and an online algorithm (http://wsbc.warwick.ac.uk/wsbcToolsWebpage/user_cases.php). Priming of CD8 T-cells from healthy donors, tetramer staining, and chromium release cytotoxicity assays were performed as described above.

T-cell clone CR24 [2] = test: Activation assay of clone CR24 with exogenous peptide (peptide titration, MIP-1β ELISA)
T-cell clone CR24 [3] = test: HLA A2 tetramer staining of CR24
[4] = test system: autologous cancer cells (RCC, CLL); test: Killing assay of peptide-primed CD8 T-cells with autologous cancer cells
From the text: (§2) (FIG. 14A) CD8 T-cells from a renal cell carcinoma (RCC) and chronic lymphocytic leukaemia (CLL) patient were left unprimed or primed with […] peptide for 28 days.

[5] = test system: autologous melanoma cells; test: Chromium release cytotoxicity assay of peptide-primed T-cell lines with autologous melanoma; details: compared to WT Melan A peptide primed T-cells
Experimental: as §1

[6] = test system: CD8 T-cells from RCC, CLL and AML patients; test: Priming of CD8 T-cells from RCC, CLL and AML patients for 28 days, TAPI-0 assay or tetramer staining
From the text: as §2

Sequence	priming of Melan A, BST2 and IMP2 tetramer-positive T-cells [1]	recognition by CR24 as exogenous peptide (T-cell clone CR24 [2])	CR24 response to individual peptide (T-cell clone CR24 [2]; peptide at 10^-6 M)	CR24 response to individual peptide (T-cell clone CR24 [2]; peptide at 10^-8 M)	staining of CR24 with HLA A2 tetramer containing the peptide (T-cell clone CR24 [3])	killing of CLL cells by primed T-cells ([4]; CLL patient 3, compared to IMP-2 primed CD8s)	killing of autologous cancer cells by primed CD8s ([4]; RCC and CLL patient, compared to unprimed T-cells)	lysis of autologous melanoma cells by peptide-primed T-cells [5]	proportion of IMP-2 specific T-cells (IMP-2 tetramer) ([6]; AML patient and two CLL patients, primed 28 days, compared to unprimed)	MTSAIGILPV specific T-cells after priming ([6]; RCC patient (TAPI-0 assay), CLL patient (tetramer), primed 28 days)	priming of T-cells in RCC, CLL and AML patients ([6]; renal cell carcinoma, chronic lymphocytic leukaemia and acute myeloid leukaemia patients)	priming of Melan A, BST2 and IMP2 tetramer-positive T-cells ([1]; listed as MTSAIGVLVP)
ITSAIGILPV (listed as Homo sapiens) [APL 2, altered peptide ligand, candidate super-agonist designed from CR24 CPL data]	exhibiting effect across each donor											
LLLGIGILVL (listed as Homo sapiens) [wild-type peptide from BST2 (residues 22-31)]		recognised	responded	responses dropped	stained							
MTSAIGILPV (listed as Homo sapiens) [APL 5, altered peptide ligand, super-agonist peptide for multi-pronged T-cells]	most effective super-agonist					killed more CLL cells	killed more autologous cancer cells	superior lysis	induced a greater proportion	presence	superior at priming	most effective of the candidate super-agonists
NLSALGIFST (listed as Homo sapiens) [wild-type peptide from IMP2 (residues 367-376)]		recognised	responded	responses dropped	stained							
